From ChEMBL document CHEMBL5226301, “Toward Raman Subcellular Imaging of Endothelial Dysfunction” (J Med Chem, 2021)

Assay: Dissociation constant, pKa of compound
Type: physicochemical

pKa	Structure (SMILES)
2.8	Nc1ccc(C#CC#Cc2ccc(O)cc2)cc1
2.7	Nc1ccc(C#CC#Cc2ccccc2)cc1
7.9	Oc1ccc(C#CC#Cc2ccccc2)cc1F
3.3	C(C#Cc1ccncc1)#Cc1ccccc1
6.2	Oc1c(F)cc(C#CC#Cc2ccccc2)cc1F
2.7	Nc1ccc(C#CC#Cc2ccccc2)c(O)c1
5	Nc1cc(C#CC#Cc2ccccc2)ccn1
3.5	Nc1cccc(C#CC#Cc2ccccc2)c1
8.5	Oc1ccc(C#CC#Cc2ccccc2)c(F)c1
9.5	Oc1ccc(C#CC#Cc2ccccc2)cc1
4.1	O=S(=O)(Nc1ccc(C#CC#Cc2ccccc2)cc1)C(F)(F)F
4	C(C#Cc1c[nH]cn1)#Cc1ccccc1
